Experimental data published in patent US20190040106A1, “USE OF HUMAN DERIVED IMMUNOSUPPRESSIVE PROTEINS AND PEPTIDES AS MEDICAMENTS” (AIMVION A/S, priority 2015, published 2019).
Bridge positions count the residues as written; N and C are the ends. Ends that are not written are not given here. Peptide text beside a SMILES is read from it. I, II: the chains in the order shown.

How the values were obtained:
THP-1 or HT-1080 cells = assay: CellTiter-Blue Cell Viability Assay, toxicity profile of peptides; conditions: about 20 h exposure
Excerpt: Here, we examined the cytotoxicity effect of peptides SG#1 to SG#17 (ID1031 to ID1047) on two human cell lines THP-1 or HT-1080 cells.
The CellTiter-Blue® Cell Viability Assay provides a homogenous, fluorometric method for estimating the number of viable cells present in multiwall plates. It uses the indicator dye resazurin to measure the metabolic capacity of cells—an indicator of cell viability. Viable cells retain the ability to reduce resazurin into resorufin, which is highly fluorescent.
The CellTiter-Blue® Reagent is a buffered solution containing highly purified resazurin. Resazurin is dark blue in color and has little intrinsic fluorescence. However, when it is reduced to resorufin, it becomes pink and highly fluorescent (579EX/584EM).
• 1. Set up 96-well assay plates containing cells in culture medium. For HT-1080, plate 1.6×10^4 cells per well on the Day 1 of the experiment. Cells are plated in 100 μl complete culture medium (DMEM) per well. • 2. On day 2, gently remove medium and add 50 μl of complete DMEM medium, add peptides and vehicle controls to appropriate wells so the final volume is 100 μl in each well. Supplement with complete DMEM where necessary. • 3. Culture cells for the desired test exposure period, about 20 h. • 4. On day 3, remove assay plates from 37° C. incubator and add 20 μl/well of CellTiter-Blue® Reagent. • 5. Shake for 10 seconds. • 6. Incubate using standard cell culture conditions for 4 hours. • 7. Shake plate for 10 seconds and record fluorescence at 560/590 nm
Toxicity profile for peptides SG#1 to SG#17 (ID1031 to ID1047). All peptides were tested at the dosage increment (10 nm, 30 nM, 100 nM, 1 μM, 10 μM, 30 μM, 100 μM and 300 μM).

[1] = test system: murine model of collagen-induced arthritis; assay: Collagen-induced arthritis model (CIA model), study number 2, Example 12; assay type: in vivo, female DBA/1J mice; conditions: for Terminal Individual Paw Score, Front left, group mean / Terminal Individual Paw Score, Front right, group mean / Terminal Individual Paw Score, Rear left, group mean / Terminal Individual Paw Score, Rear right, group mean: day 42; for effect on diseased mouse weight / incidence of disease / reduction in disease severity: once daily subcutaneous 4 μg/mouse; for incidence of disease: starting one hour prior to disease induction; for reduction in disease severity: at the termination of the study; for Arthritic Index (AI), group mean: peptides 4 μg/mouse, methotrexate 1 mg/kg, subcutaneous
Procedure: The CIA model as described in an Example 9 is the “standard” animal model for evaluation of anti-arthritic activity based on immunization with bovine collagen to develop antibodies against bone and cartilage.
Here we present data on investigating in vivo effect of the HERV-Env59, SG#2, and SG#5 and SG#15 peptides. The aim was to determine anti-arthritic dosing paradigm in a murine model of collagen-induced arthritis. This study was carried out in female DBA/1J mice. The effect of the Env59 ISU peptide, SG#2, SG#5 or SG#15 peptide on disease development is compared with a methotrexate MTX (positive control) or saline treated control group.
Day 0: The mice were weighted and injected subcutaneously at the nape of the neck as in the table below (table 6):
An hour later, the mice were injected subcutaneously at the base of the tail with 50 μl of the collagen/CFA emulsion.
Mice were scored for signs of arthritis every Monday, Wednesday, and Friday during the next 41 days as follows: • Each paw receives a score • 0=no visible effects of arthritis • 1=edema and/or erythema of 1 digit • 2=edema and/or erythema of 2 digits • 3=edema and/or erythema of more than 2 digits • 4=severe arthritis of entire paw and digits
The Arthritic Index (AI) was calculated by the addition of individual paw scores.
Day 42 The mice were weighted and scored for signs of arthritis.

## CC[C@H](C)[C@H](NC(=O)[C@H](CO)NC(=O)[C@H](CC(C)C)NC(=O)CNC(=O)[C@H](CCCCNC(=O)[C@H](CC(C)C)NC(=O)CNC(=O)[C@H](CCCNC(=N)N)NC(=O)[C@H](CCCNC(=N)N)NC(=O)[C@H](CC(N)=O)NC(=O)[C@H](CCC(N)=O)NC(=O)[C@@H](N)CC(C)C)NC(=O)[C@H](CC(C)C)NC(=O)CNC(=O)[C@H](CCCNC(=N)N)NC(=O)[C@H](CCCNC(=N)N)NC(=O)[C@H](CC(N)=O)NC(=O)[C@H](CCC(N)=O)NC(=O)[C@@H](N)CC(C)C)C(=O)N[C@@H](CC(C)C)C(=O)N[C@@H](CC(C)C)C(=O)N[C@@H](CC(N)=O)C(=O)N[C@@H](CCC(=O)O)C(=O)N[C@@H](CCC(=O)O)C(=O)O [SG#16] (I: H-LQNRRGLKGLSILLNEE-OH / II: H-LQNRRGL; amide I:8-II:C)
THP-1 or HT-1080 cells
  Toxicity yes/no at the 300 μM conc.: No

## GLSILLNEECGPGPGP (Possibly HERV) [SG#5]
[1]
  Terminal Individual Paw Score, Front left, group mean: 1.3
  Terminal Individual Paw Score, Front right, group mean: 1.1
  Terminal Individual Paw Score, Rear left, group mean: 0.3
  Terminal Individual Paw Score, Rear right, group mean: 1.0
  effect on diseased mouse weight: no effect
  incidence of disease: 80%
  reduction in disease severity: 70%
[1]; study day 14
  Arthritic Index (AI), group mean: 0
[1]; study day 21
  Arthritic Index (AI), group mean: 0
[1]; study day 25
  Arthritic Index (AI), group mean: 0
[1]; study day 27
  Arthritic Index (AI), group mean: 0.0
[1]; study day 29
  Arthritic Index (AI), group mean: 0.9
[1]; study day 32
  Arthritic Index (AI), group mean: 1.1
[1]; study day 34
  Arthritic Index (AI), group mean: 1.3
[1]; study day 36
  Arthritic Index (AI), group mean: 2.1
[1]; study day 39
  Arthritic Index (AI), group mean: 3.3
[1]; study day 41
  Arthritic Index (AI), group mean: 3.5
[1]; study day 42
  Arthritic Index (AI), group mean: 3.6
THP-1 or HT-1080 cells
  Toxicity yes/no at the 300 μM conc.: No

## LNRKAIGLSILLNEECGPGPGP (Possibly HERV) [SG#6]
THP-1 or HT-1080 cells
  Toxicity yes/no at the 300 μM conc.: No

## LQNKKGLGLSILLNEECGPGPGP (Possibly HERV) [SG#9]
THP-1 or HT-1080 cells
  Toxicity yes/no at the 300 μM conc.: No

## LQNKRGLGLSILLNEECGPGPGP (Possibly HERV) [SG#8]
THP-1 or HT-1080 cells
  Toxicity yes/no at the 300 μM conc.: No

## LQNRRGLDLSILLNEECGPGPGP (Possibly HERV) [SG#3]
THP-1 or HT-1080 cells
  Toxicity yes/no at the 300 μM conc.: No

## LQNRRGLGLSILLNC (Possibly HERV) [SG#4]
THP-1 or HT-1080 cells
  Toxicity yes/no at the 300 μM conc.: No

## LQNRRGLGLSILLNEE [SG#13]
THP-1 or HT-1080 cells
  Toxicity yes/no at the 300 μM conc.: No

## LQNRRGLGLSILLNEECEEGPGPGP (Possibly HERV) [SG#2]
[1]
  Terminal Individual Paw Score, Front left, group mean: 0.4
  Terminal Individual Paw Score, Front right, group mean: 0.4
  Terminal Individual Paw Score, Rear left, group mean: 0.1
  Terminal Individual Paw Score, Rear right, group mean: 0.5
  effect on diseased mouse weight: no effect
  incidence of disease: 30%
  reduction in disease severity: 90%
[1]; study day 14
  Arthritic Index (AI), group mean: 0
[1]; study day 21
  Arthritic Index (AI), group mean: 0
[1]; study day 25
  Arthritic Index (AI), group mean: 0
[1]; study day 27
  Arthritic Index (AI), group mean: 0.4
[1]; study day 29
  Arthritic Index (AI), group mean: 0.4
[1]; study day 32
  Arthritic Index (AI), group mean: 0.9
[1]; study day 34
  Arthritic Index (AI), group mean: 0.9
[1]; study day 36
  Arthritic Index (AI), group mean: 0.9
[1]; study day 39
  Arthritic Index (AI), group mean: 0.9
[1]; study day 41
  Arthritic Index (AI), group mean: 1.0
[1]; study day 42
  Arthritic Index (AI), group mean: 1.4
THP-1 or HT-1080 cells
  Toxicity yes/no at the 300 μM conc.: No

## LQNRRGLGLSILLNEECGPGPGP [SG#10]
THP-1 or HT-1080 cells
  Toxicity yes/no at the 300 μM conc.: No

## LQNRRGLGLSILLNEECGPGPGP [SG#17] (Possibly HERV)
THP-1 or HT-1080 cells
  Toxicity yes/no at the 300 μM conc.: No

## LQNRRGLGLSILLNEECGPKK (Possibly HERV) [SG#11]
THP-1 or HT-1080 cells
  Toxicity yes/no at the 300 μM conc.: No

## LQNRRGLGLSILLNEECKKGPGPGP (Possibly HERV) [SG#1]
THP-1 or HT-1080 cells
  Toxicity yes/no at the 300 μM conc.: No

## LQNRRGLGLSILLNEELQNRRGL [SG#14]
THP-1 or HT-1080 cells
  Toxicity yes/no at the 300 μM conc.: No

## LQNRRGLGLSILLNEELQNRRGLC (Possibly HERV) [SG#12]
THP-1 or HT-1080 cells
  Toxicity yes/no at the 300 μM conc.: No

## LQNRRGLLQNRRGLGLSILLNEE (Possibly HERV) [SG#15]
[1]
  Terminal Individual Paw Score, Front left, group mean: 0.1
  Terminal Individual Paw Score, Front right, group mean: 0
  Terminal Individual Paw Score, Rear left, group mean: 0.3
  Terminal Individual Paw Score, Rear right, group mean: 0
  effect on diseased mouse weight: no effect
  incidence of disease: 30%
  reduction in disease severity: 97%
[1]; study day 14
  Arthritic Index (AI), group mean: 0
[1]; study day 21
  Arthritic Index (AI), group mean: 0
[1]; study day 25
  Arthritic Index (AI), group mean: 0
[1]; study day 27
  Arthritic Index (AI), group mean: 0.1
[1]; study day 29
  Arthritic Index (AI), group mean: 0.1
[1]; study day 32
  Arthritic Index (AI), group mean: 0.1
[1]; study day 34
  Arthritic Index (AI), group mean: 0.3
[1]; study day 36
  Arthritic Index (AI), group mean: 0.3
[1]; study day 39
  Arthritic Index (AI), group mean: 0.3
[1]; study day 41
  Arthritic Index (AI), group mean: 0.3
[1]; study day 42
  Arthritic Index (AI), group mean: 0.4
THP-1 or HT-1080 cells
  Toxicity yes/no at the 300 μM conc.: No
